{"source": "paper PMC8586358", "about": "(Nature Communications, 2021)", "key": {"MAGL": {"target": "T1, MAGL (Homo sapiens, UniProt Q99685)", "T1 sequence (Q99685 1-303)": "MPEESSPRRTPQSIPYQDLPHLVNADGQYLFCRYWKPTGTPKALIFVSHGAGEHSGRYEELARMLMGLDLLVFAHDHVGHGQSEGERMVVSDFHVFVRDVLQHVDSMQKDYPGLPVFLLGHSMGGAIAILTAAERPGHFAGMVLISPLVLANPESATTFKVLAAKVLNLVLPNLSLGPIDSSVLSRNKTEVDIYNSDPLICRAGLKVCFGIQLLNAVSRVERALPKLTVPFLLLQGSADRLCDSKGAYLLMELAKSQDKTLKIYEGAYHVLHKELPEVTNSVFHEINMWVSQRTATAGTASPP", "assay": "2-Arachidonoylglycerol-based fluorescence assay for DH-463", "type": "biochemical", "protocol": "The natural substrate assays were performed as reported previously[80],[81]. All chemicals and reagents were purchased from Sigma-Aldrich, unless mentioned otherwise. […] 2-Arachidonoylglycerol was from Cayman Chemical. All measurements were performed in n = 4 or n = 8 for controls, with Z’ ≥ 0.6."}, "D3R": {"target": "T2, D3R (Homo sapiens, UniProt P35462)", "T2 construct": "expressed in transfected cells; host or cells: HEK 293 (microscopy), HEK 293T (BRET)", "T2 sequence (P35462 whole entry)": "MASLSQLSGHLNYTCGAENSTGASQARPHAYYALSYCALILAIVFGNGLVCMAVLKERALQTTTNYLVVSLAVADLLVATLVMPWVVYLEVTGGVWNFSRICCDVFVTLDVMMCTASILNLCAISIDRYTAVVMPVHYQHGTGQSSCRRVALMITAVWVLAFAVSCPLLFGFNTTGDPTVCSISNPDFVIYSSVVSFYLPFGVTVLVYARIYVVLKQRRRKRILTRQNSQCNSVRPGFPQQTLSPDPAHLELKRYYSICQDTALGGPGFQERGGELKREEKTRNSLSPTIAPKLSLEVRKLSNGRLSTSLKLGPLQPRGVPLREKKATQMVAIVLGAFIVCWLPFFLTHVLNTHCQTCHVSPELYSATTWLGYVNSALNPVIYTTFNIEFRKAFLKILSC", "assay": "BRET-based Gi1-activation assay in HEK 293T cells", "type": "cell-based", "description": "The next day we replaced the medium with modified Kreb’s Ringer medium and performed BRET experiments using a Thermo Scientific Varioskan Flash multimode plate reader similarly as previously described. […] To calculate the BRET response, we first subtracted the BRET ratio of cells coexpressing the untagged β1 subunit from the BRET ratio of cells coexpressing Venus-β1. Then we corrected the baseline BRET ratio and subtracted the BRET ratio of vehicle-treated cells from the average BRET ratio of stimulus-treated cells. All BRET measurements were performed in triplicates."}, "[1]": {"target": "T3, D3R in the Islands of Calleja (Mus musculus, UniProt P30728)", "T3 construct": "from tissue; host or cells: mouse brain (Islands of Calleja, ventral and dorsal striatum); acute slices or fresh-frozen cryosections", "T3 sequence (P30728 whole entry)": "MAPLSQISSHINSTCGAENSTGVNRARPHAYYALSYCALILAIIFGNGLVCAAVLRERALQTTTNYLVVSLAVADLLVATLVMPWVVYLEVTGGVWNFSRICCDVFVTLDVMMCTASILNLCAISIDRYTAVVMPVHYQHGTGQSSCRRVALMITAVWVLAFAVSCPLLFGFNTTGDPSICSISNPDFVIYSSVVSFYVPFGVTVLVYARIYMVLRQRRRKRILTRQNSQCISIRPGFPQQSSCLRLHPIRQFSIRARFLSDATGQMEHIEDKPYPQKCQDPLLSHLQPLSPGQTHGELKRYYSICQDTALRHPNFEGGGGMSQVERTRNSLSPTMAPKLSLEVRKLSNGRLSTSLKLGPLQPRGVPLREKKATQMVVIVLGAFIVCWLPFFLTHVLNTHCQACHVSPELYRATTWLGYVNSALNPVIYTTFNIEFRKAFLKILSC", "assay": "In vivo competitive drug-binding measurement (cariprazine i.p., then Fluo-CAR labeling of acute slices)", "conditions": "cariprazine 1 mg/kg i.p., 2 h", "protocol": "Male 26–33-days-old C57BL/6 mice were intraperitoneally injected with 1 mg/kg cariprazine or an equal volume of vehicle (0.9% saline + 1% Tween80). After injection (2 h), pharmacological tissue labeling was carried out similarly to the previous experiments. […] Slices were rinsed three times with ACSF and fixed overnight with 4% PFA. Slices were either processed for correlated confocal and STORM imaging or for conventional confocal imaging."}, "CB1R [2]": {"target": "T4, CB1R (Homo sapiens, UniProt P21554)", "T4 sequence (P21554 whole entry)": "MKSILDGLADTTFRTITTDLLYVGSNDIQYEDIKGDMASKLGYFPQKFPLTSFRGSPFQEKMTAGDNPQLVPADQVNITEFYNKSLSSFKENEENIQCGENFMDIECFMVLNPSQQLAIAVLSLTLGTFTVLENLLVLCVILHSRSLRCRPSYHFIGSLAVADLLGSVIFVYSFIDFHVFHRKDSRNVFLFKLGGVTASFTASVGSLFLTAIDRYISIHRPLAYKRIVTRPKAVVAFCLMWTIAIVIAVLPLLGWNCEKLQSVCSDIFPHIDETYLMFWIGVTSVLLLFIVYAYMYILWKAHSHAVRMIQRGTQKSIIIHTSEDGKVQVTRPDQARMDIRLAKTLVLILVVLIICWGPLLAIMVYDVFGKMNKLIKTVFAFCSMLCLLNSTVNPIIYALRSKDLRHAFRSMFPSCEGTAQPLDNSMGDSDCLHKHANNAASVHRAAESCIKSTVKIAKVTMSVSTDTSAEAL", "type": "cell-based", "design": "expressed in transfected cells; host or cells: HEK 293T", "conditions": "for cAMP reduction (%): single experiments"}, "CB1R [3]": {"target": "T4, CB1R", "assay": "Ligand-binding assay, affinity of fluo-cannabinoid for CB1R (Supplementary Table S1)"}, "D2R": {"target": "T5, D2R (Homo sapiens, UniProt P14416)", "T5 construct": "expressed in transfected cells; host or cells: HEK 293", "T5 sequence (P14416 whole entry)": "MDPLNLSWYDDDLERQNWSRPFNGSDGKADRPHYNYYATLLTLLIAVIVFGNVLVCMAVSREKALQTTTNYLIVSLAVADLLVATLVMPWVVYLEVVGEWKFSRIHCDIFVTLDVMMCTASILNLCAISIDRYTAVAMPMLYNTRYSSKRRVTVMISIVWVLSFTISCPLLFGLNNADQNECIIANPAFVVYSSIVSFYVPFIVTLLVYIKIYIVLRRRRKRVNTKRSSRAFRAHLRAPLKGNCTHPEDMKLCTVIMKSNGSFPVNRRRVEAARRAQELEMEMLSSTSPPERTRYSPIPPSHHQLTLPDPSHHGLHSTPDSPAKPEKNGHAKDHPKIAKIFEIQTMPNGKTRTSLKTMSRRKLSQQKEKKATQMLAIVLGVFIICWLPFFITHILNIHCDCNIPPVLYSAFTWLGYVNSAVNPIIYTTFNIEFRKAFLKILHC", "assay": "Fluo-cariprazine PharmacoSTORM signal in D2R-expressing cells (Supplementary Fig. S6d)", "type": "binding", "text": "Generation of N-terminally EGFP-tagged mouse CB1R was previously described[8]. The coding sequence of monoacylglycerol lipase (MAGL) was amplified with mMGL_fw and mMGL_rev primers using a mouse brain cDNA library as a template. The PCR product was digested with HindIII and BamHI enzymes and cloned into pcDNA3.1 backbone. GFP-MGL was constructed by subcloning the open reading frame of MAGL into pAcGFP1-C1 vector following HindIII/BamHI digestion. […] The amplified DNA was inserted into pcDNA3.1 vector between the BamHI and XhoI restriction sites. TMEM35 in pCMV6 vector was from Origene (RC209790). The pGloSensor™-22F cAMP plasmid was from Promega. The plasmid encoding CB1R was generated by inserting the coding sequence of human CB1R into pCAGIG vector. The plasmids encoding Gi1 subunits (αi1, β1, and γ2) were from the cDNA Resource Center. We created Gαi1–Rluc8 using overlap exchange PCR, Rluc8 was inserted into Gαi1 between residue 91 and 92 with SGGGGS linkers similar to a previous design[77]. Venus–β1 was created by replacing YFP with Venus in YFP–β1 using restriction digestion, YFP–β1 plasmid construct was described previously[78].\nFor microscopic experiments, cells were seeded one day before transfection on poly-D-lysine-coated coverslips in 24-well culture plates. Coverslips were cleaned with extensive 2 M NaOH and 70% ethanol washing steps prior to use. Transient transfection was done with Lipofectamine 2000 (Thermo Fischer) according to the manufacturer’s protocol. After transfection (20–28 h), pharmacological treatment was applied and then combined with immunolabeling. The full procedure was optimized for each investigated protein. In the case of D3R-, CB1R-, and α7-nAchR-expressing cells, all labeling and washing steps were executed in Hanks’ balanced salt solution (Sigma-Aldrich H6648) on live cells, and in Dulbecco’s Phosphate Buffered Saline (Corning, 21-031-CV) on fixed cells. The labeling steps with antibodies, ligands, or fixatives were followed by three washing steps. […] Unless otherwise stated, we used CF568-labeled secondary antibodies.\nThe HA-D3R-expressing cells were live-stained with anti-HA primary and secondary antibodies for 10 min at room temperature. […] Cells were fixed in 4% PFA for 10 min before imaging. For Supplementary Fig. S5g, Cy5-labeled secondary antibody was applied, without fluorescent ligand treatment. For fluo-cannabinoid binding experiments, all steps were executed at room temperature. […] MAGL pharmacological labeling was performed in culture medium in a 5% CO2 atmosphere at 37 °C. […] Before immunolabeling, cells were washed with 100% methanol three times for 10 min and were blocked with 5% normal donkey serum (NDS) in 0.1 M phosphate buffer (PB; pH 7.4), for 30 min. Anti-GFP immunolabeling was done in 0.1 M PB and immunostained cells were postfixed with 4% PFA before imaging. In the case of α7-nAChR experiments, its chaperon protein, NACHO (TMEM35) was co-transfected in a 10 to 1 receptor:chaperon ratio in order to enhance cell-surface expression of the ion channel[79]. MLA pretreatment and Alexa647-bungarotoxin labeling were done at 4 °C for 20 min. After pharmacological labeling, the cells were fixed with 4% PFA, and subsequent anti-HA-immunolabeling was done at room temperature. Immunolabeling was followed by post-fixation.\nTo analyze the number of localization points (LPs) in membranes of cultured cells, we merged the dSTORM images obtained from pharmacolabeling (PharmacoSTORM) and immunolabeling (ImmunoSTORM). […]"}, "α7-nAchR-HA": {"target": "α7-nAchR-HA (Homo sapiens, UniProt P36544)", "sequence (P36544 23-502)": "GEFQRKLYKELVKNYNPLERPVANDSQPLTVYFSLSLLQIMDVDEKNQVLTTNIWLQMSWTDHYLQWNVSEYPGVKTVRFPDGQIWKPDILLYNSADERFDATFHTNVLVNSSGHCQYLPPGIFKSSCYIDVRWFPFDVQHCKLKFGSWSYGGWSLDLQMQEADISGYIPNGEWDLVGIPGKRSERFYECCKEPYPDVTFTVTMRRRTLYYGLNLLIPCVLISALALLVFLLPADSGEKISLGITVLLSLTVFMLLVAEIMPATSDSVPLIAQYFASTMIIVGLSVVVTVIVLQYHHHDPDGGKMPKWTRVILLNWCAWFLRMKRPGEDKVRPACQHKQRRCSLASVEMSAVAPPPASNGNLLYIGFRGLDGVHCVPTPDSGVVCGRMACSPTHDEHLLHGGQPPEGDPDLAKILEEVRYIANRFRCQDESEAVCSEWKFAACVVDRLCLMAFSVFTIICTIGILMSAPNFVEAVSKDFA"}, "[4]": {"conditions": "log(agonist) vs. response, variable slope"}}, "note": "Values joined by “and” are separate entries in the source; they are usually repeats but may differ in a detail not shown here. Equal entries are not always repeated. Where two headings read alike, the source gives them in different places."}
{"smiles": "CN1/C(=C/C=C/C=C/C2=[N+](CCCCCC(=O)NCc3cn(CCOc4ccc(C(c5ccc(Cl)cc5)N5CCN(C(=O)OC(C(F)(F)F)C(F)(F)F)CC5)cc4)nn3)c3ccccc3C2(C)C)C(C)(C)c2ccccc21.[Cl-]", "note": "(centres unmarked) [DH-463]", "values": [{"measurement": "HILLSLOPE (best-fit)", "setting": "MAGL", "result": "-0,7836"}, {"measurement": "MAGL activity (%), mean", "setting": "MAGL; 10^-5 M", "result": 5.023, "unit": "%"}, {"measurement": "MAGL activity (%), mean", "setting": "MAGL; 10^-6 M", "result": 10.8061, "unit": "%"}, {"measurement": "MAGL activity (%), mean", "setting": "MAGL; 10^-7 M", "result": 27.8239, "unit": "%"}, {"measurement": "MAGL activity (%), mean", "setting": "MAGL; 10^-8 M", "result": 51.3279, "unit": "%"}, {"measurement": "MAGL activity (%), mean", "setting": "MAGL; 10^-9 M", "result": 91.5194, "unit": "%"}, {"measurement": "MAGL activity (%), mean", "setting": "MAGL; 10^-10 M", "result": 105.132, "unit": "%"}, {"measurement": "LOGIC50 (best-fit)", "setting": "MAGL; concentration in M", "result": "-7,938"}, {"measurement": "BOTTOM (best-fit), MAGL activity", "setting": "MAGL; log(inhibitor) vs. response, variable slope", "result": "7,823%"}, {"measurement": "IC50", "setting": "MAGL; read-out: IC50 (best-fit)", "result": 11.5, "unit": "nM"}]}
{"smiles": "CCCN1CCO[C@@H]2c3cc(O)ccc3OC[C@H]21", "note": "[PD128907]", "values": [{"measurement": "Gi1-BRET response (%, norm. to pretreatment)", "setting": "D3R; PD 128907 10-6.5 M, vehicle pretreatment", "result": "106.065% and 96.3019% and 97.7639%"}, {"measurement": "Gi1-BRET response (%, norm. to pretreatment)", "setting": "D3R; PD 128907 10-7.5 M, vehicle pretreatment", "result": "94.4647% and 90.0327% and 83.0176%"}, {"measurement": "Gi1-BRET response (%, norm. to pretreatment)", "setting": "D3R; PD 128907 10-8.5 M, vehicle pretreatment", "result": "62.6732% and 52.2099% and 77.0199%"}, {"measurement": "Gi1-BRET response (%, norm. to pretreatment)", "setting": "D3R; PD 128907 10-9.5 M, vehicle pretreatment", "result": "23.5448% and 22.9857% and 15.0109%"}, {"measurement": "Gi1-BRET response (%, norm. to pretreatment)", "setting": "D3R; PD 128907 10^-6 M, vehicle pretreatment", "result": 100, "unit": "%"}, {"measurement": "Gi1-BRET response (%, norm. to pretreatment)", "setting": "D3R; PD 128907 10^-7 M, vehicle pretreatment", "result": "92.6877% and 91.1582% and 95.9579%"}, {"measurement": "Gi1-BRET response (%, norm. to pretreatment)", "setting": "D3R; PD 128907 10^-8 M, vehicle pretreatment", "result": "89.6043% and 74.7508% and 92.6073%"}, {"measurement": "Gi1-BRET response (%, norm. to pretreatment)", "setting": "D3R; PD 128907 10^-9 M, vehicle pretreatment", "result": "56.1354% and 47.8674% and 57.7701%"}, {"measurement": "TOP (best-fit), Gi1-BRET response", "setting": "D3R; PD 128907, vehicle pretreatment", "result": "95,84%"}, {"measurement": "LOGEC50 (best-fit)", "setting": "D3R; PD 128907, vehicle pretreatment, concentration in M", "result": "-8,980"}, {"measurement": "EC50", "setting": "D3R; vehicle pretreatment, n = 3, read-out: EC50 of PD128907", "result": 1.05, "unit": "nM"}]}
{"smiles": "CN(C)C(=O)N[C@H]1CC[C@H](CCN2CCN(c3cccc(Cl)c3Cl)CC2)CC1", "note": "[cariprazine]", "values": [{"measurement": "effect on fluo-cariprazine signal in the hilar subregion of the Islands of Calleja", "setting": "[1]", "result": "completely eliminated"}, {"measurement": "Fluo-CAR STORM density (LPs/μm2)", "setting": "[1]; slices with 30 nM Fluo-CAR, Islands of Calleja, per animal", "result": "0.8583 LPs/μm2 and 0.5531 LPs/μm2 and 1.2207 LPs/μm2 and 0.9766 LPs/μm2"}]}
{"smiles": "CCCCCCC(C)(C)c1cc(O)c2c(c1)OC(C)(C)c1ccc(CNCCCCCCNC(=O)CCCCC[N+]3=C(/C=C/C=C/C=C4/N(C)c5ccc(S(=O)(=O)O)cc5C4(C)C)C(C)(C)c4cc(S(=O)(=O)[O-])ccc43)cc1-2", "note": "[fluo-cannabinoid]", "values": [{"measurement": "HILLSLOPE (best-fit)", "setting": "CB1R [2]", "result": "0,9981"}, {"measurement": "Span (best-fit), cAMP reduction", "setting": "CB1R [2]", "result": "37,53%"}, {"measurement": "cAMP reduction (%)", "setting": "CB1R [2]; 10-6.5 M", "result": "31.4472% and 32.8666% and 33.3129% and 25.9155% and 23.0595%"}, {"measurement": "cAMP reduction (%)", "setting": "CB1R [2]; 10-8.5 M", "result": "-1.6297% and 1.0916% and -1.1492% and -4.3119% and 0.7084%"}, {"measurement": "cAMP reduction (%)", "setting": "CB1R [2]; 10^-6 M", "result": "35.6911% and 25.5164% and 35.8634% and 19.8904% and 28.6228%"}, {"measurement": "cAMP reduction (%)", "setting": "CB1R [2]; 10^-9 M", "result": 0, "unit": "%"}, {"measurement": "LOGEC50 (best-fit)", "setting": "CB1R [2]; concentration in M", "result": "-7,482"}, {"measurement": "Emax", "setting": "CB1R [2]; in vitro cAMP assay on CB1R", "result": 36.1, "unit": "%"}, {"measurement": "BOTTOM (best-fit), cAMP reduction", "setting": "CB1R [2]; [4]", "result": "-1,444%"}, {"measurement": "TOP (best-fit), cAMP reduction", "setting": "CB1R [2]; [4]", "result": "36,09%"}, {"measurement": "EC50", "setting": "CB1R [2]; read-out: EC50 (best-fit)", "result": 33, "unit": "nM"}, {"measurement": "Ki", "setting": "CB1R [3]", "result": 3.5, "unit": "nM"}]}
{"smiles": "CN(CCCNC(=O)CCCCC[N+]1=C(/C=C/C=C/C=C2/N(C)c3ccc(S(=O)(=O)O)cc3C2(C)C)C(C)(C)c2cc(S(=O)(=O)[O-])ccc21)C(=O)N[C@H]1CC[C@@H](CCN2CCN(c3cccc(Cl)c3Cl)CC2)CC1", "note": "[fluo-cariprazine]", "values": [{"measurement": "PharmacoSTORM LPs / ImmunoSTORM LPs (% of D3R), actual mean", "setting": "D2R", "result": "7,203%"}, {"measurement": "PharmacoSTORM LPs / ImmunoSTORM LPs (% of D3R)", "setting": "D2R; single experiments", "result": "3.466% and 8.432% and 4.243% and 12.6707%"}]}
{"smiles": "CCN1C[C@]2(COC(=O)c3ccccc3N3C(=O)C[C@H](C)C3=O)CC[C@H](OC)[C@@]34[C@@H]5C[C@H]6[C@H](OC)[C@@H]5[C@](O)(C[C@@H]6OC)[C@@](O)([C@@H](OC)[C@H]23)[C@@H]14", "note": "[methyllycaconitine]", "values": [{"measurement": "effect on PharmacoSTORM signal of Alexa647-α-bungarotoxin", "setting": "α7-nAchR-HA", "result": "fully prevented"}]}
